Laboratory results from article PMC6149898, “GPCR Modulation of Thieno[2,3-b]pyridine Anti-Proliferative Agents” (Molecules : A Journal of Synthetic Chemistry and Natural …, 2017).

How the values were obtained:
CNS:SF-268 = tested on: CNS:SF-268; set-up: method as in earlier work; conditions: NCI-60 panel; ref [4],[5],[6],[7]; cited from earlier work
CO:COLO 205 = tested on: CO:COLO 205; set-up: method as in earlier work; conditions: NCI-60 panel; ref [4],[5],[6],[7]; cited from earlier work
CO:HCT-116 = tested on: CO:HCT-116; set-up: method as in earlier work; conditions: NCI-60 panel; ref [4],[5],[6],[7]; cited from earlier work
CO:KM12 = tested on: CO:KM12; set-up: method as in earlier work; conditions: NCI-60 panel; ref [4],[5],[6],[7]; cited from earlier work
LE:SR = tested on: LE:SR; set-up: method as in earlier work; conditions: NCI-60 panel; ref [4],[5],[6],[7]; cited from earlier work
LC:NCI-H522 = tested on: LC:NCI-H522; set-up: method as in earlier work; conditions: NCI-60 panel; ref [4],[5],[6],[7]; cited from earlier work
OV:OVCAR-3 = tested on: OV:OVCAR-3; set-up: method as in earlier work; conditions: NCI-60 panel; ref [4],[5],[6],[7]; cited from earlier work
OV:OVCAR-4 = tested on: OV:OVCAR-4; set-up: method as in earlier work; conditions: NCI-60 panel; ref [4],[5],[6],[7]; cited from earlier work
RE:CAKI-1 = tested on: RE:CAKI-1; set-up: method as in earlier work; conditions: NCI-60 panel; ref [4],[5],[6],[7]; cited from earlier work
RE:SN12C = tested on: RE:SN12C; set-up: method as in earlier work; conditions: NCI-60 panel; ref [4],[5],[6],[7]; cited from earlier work
ADRA2C = ADRA2C (Homo sapiens, UniProt P18825); assay: gpcrMAX PathHunter beta-arrestin
BDKRB2 = BDKRB2 (Homo sapiens, UniProt P30411); assay: gpcrMAX PathHunter beta-arrestin
CALCRL-RAMP2 = CALCRL-RAMP2 (Homo sapiens, UniProt O60895+Q16602); assay: gpcrMAX PathHunter beta-arrestin
CALCR-RAMP2 = CALCR-RAMP2 (Homo sapiens, UniProt O60895+P30988); assay: gpcrMAX PathHunter beta-arrestin
CCR1 = CCR1 (Homo sapiens, UniProt P32246); assay: gpcrMAX PathHunter beta-arrestin
CCR3 = CCR3 (Homo sapiens, UniProt P51677); assay: gpcrMAX PathHunter beta-arrestin
CCR6 = CCR6 (Homo sapiens, UniProt P51684); assay: gpcrMAX PathHunter beta-arrestin
CCR7 = CCR7 (Homo sapiens, UniProt P32248); assay: gpcrMAX PathHunter beta-arrestin
CCR9 = CCR9 (Homo sapiens, UniProt P51686); assay: gpcrMAX PathHunter beta-arrestin
CHRM1 = CHRM1 (Homo sapiens, UniProt P11229); assay: gpcrMAX PathHunter beta-arrestin
CMKLR1 = CMKLR1 (Homo sapiens, UniProt Q99788); assay: gpcrMAX PathHunter beta-arrestin
CRTH2 = CRTH2 (Homo sapiens, UniProt Q9Y5Y4); assay: gpcrMAX PathHunter beta-arrestin
CXCR6 = CXCR6 (Homo sapiens, UniProt O00574); assay: gpcrMAX PathHunter beta-arrestin
DRD2L = DRD2L (Homo sapiens, UniProt P14416); assay: gpcrMAX PathHunter beta-arrestin
EDNRB = EDNRB (Homo sapiens, UniProt P24530); assay: gpcrMAX PathHunter beta-arrestin
GPR120 = GPR120 (Homo sapiens, UniProt Q5NUL3); assay: gpcrMAX PathHunter beta-arrestin
HTR2A = HTR2A (Homo sapiens, UniProt P28223); assay: gpcrMAX PathHunter beta-arrestin
MC1R = MC1R (Homo sapiens, UniProt Q01726); assay: gpcrMAX PathHunter beta-arrestin
MCHR2 = MCHR2 (Homo sapiens, UniProt Q969V1); assay: gpcrMAX PathHunter beta-arrestin
NTSR1 = NTSR1 (Homo sapiens, UniProt P30989); assay: gpcrMAX PathHunter beta-arrestin
OPRD1 = OPRD1 (Homo sapiens, UniProt P41143); assay: gpcrMAX PathHunter beta-arrestin
OXER1 = OXER1 (Homo sapiens, UniProt Q8TDS5); assay: gpcrMAX PathHunter beta-arrestin
P2RY1 = P2RY1 (Homo sapiens, UniProt P47900); assay: gpcrMAX PathHunter beta-arrestin
P2RY2 = P2RY2 (Homo sapiens, UniProt P41231); assay: gpcrMAX PathHunter beta-arrestin
PPYR1 = PPYR1 (Homo sapiens, UniProt P50391); assay: gpcrMAX PathHunter beta-arrestin
PTGER2 = PTGER2 (Homo sapiens, UniProt P43116); assay: gpcrMAX PathHunter beta-arrestin
PTGFR = PTGFR (Homo sapiens, UniProt P43088); assay: gpcrMAX PathHunter beta-arrestin
SCTR = SCTR (Homo sapiens, UniProt P47872); assay: gpcrMAX PathHunter beta-arrestin
SSTR5 = SSTR5 (Homo sapiens, UniProt P35346); assay: gpcrMAX PathHunter beta-arrestin
TSHR(L) = TSHR(L) (Homo sapiens, UniProt P16473); assay: gpcrMAX PathHunter beta-arrestin
TSHR(L), sequence (P16473 21-764): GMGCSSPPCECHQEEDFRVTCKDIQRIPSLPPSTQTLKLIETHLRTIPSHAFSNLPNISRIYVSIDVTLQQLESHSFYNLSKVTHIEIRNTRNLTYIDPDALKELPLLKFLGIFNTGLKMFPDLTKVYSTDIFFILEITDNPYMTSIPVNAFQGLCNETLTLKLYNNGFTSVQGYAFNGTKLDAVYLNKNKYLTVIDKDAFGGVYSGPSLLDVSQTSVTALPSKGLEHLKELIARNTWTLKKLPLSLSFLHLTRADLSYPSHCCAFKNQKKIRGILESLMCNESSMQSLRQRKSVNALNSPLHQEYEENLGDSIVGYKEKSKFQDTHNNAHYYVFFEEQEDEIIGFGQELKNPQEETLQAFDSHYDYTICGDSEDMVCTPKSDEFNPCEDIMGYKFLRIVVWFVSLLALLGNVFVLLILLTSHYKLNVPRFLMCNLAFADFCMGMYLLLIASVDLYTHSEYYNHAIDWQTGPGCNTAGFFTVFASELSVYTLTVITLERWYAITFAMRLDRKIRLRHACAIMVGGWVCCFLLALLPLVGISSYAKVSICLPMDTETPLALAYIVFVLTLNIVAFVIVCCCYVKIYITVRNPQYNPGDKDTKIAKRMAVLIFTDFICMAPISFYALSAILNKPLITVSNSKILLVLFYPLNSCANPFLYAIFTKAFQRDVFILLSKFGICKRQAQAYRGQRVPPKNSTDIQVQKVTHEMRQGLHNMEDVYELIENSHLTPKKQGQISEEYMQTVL

CRTH2, sequence (Q9Y5Y4 whole entry): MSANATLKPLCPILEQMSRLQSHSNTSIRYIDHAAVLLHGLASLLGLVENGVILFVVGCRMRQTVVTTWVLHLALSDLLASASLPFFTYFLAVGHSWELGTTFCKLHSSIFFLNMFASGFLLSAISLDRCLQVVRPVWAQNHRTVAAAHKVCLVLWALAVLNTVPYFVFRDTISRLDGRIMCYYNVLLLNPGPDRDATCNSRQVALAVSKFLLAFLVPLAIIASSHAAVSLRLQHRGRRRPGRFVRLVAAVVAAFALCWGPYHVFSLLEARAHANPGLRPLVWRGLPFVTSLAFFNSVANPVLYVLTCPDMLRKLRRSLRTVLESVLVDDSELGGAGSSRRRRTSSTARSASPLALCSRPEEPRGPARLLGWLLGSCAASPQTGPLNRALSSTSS
PPYR1, sequence (P50391 whole entry): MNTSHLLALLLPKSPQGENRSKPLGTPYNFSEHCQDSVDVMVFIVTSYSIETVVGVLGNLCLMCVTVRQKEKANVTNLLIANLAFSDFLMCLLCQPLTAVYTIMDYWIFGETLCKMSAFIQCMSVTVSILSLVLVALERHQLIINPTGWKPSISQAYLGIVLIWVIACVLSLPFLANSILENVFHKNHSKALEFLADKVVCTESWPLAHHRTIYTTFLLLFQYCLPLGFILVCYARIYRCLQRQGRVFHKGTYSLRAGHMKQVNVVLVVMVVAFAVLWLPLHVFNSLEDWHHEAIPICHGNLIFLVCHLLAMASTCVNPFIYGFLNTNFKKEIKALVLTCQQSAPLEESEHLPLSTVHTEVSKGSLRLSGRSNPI
CALCRL-RAMP2, sequence (Q16602 23-461): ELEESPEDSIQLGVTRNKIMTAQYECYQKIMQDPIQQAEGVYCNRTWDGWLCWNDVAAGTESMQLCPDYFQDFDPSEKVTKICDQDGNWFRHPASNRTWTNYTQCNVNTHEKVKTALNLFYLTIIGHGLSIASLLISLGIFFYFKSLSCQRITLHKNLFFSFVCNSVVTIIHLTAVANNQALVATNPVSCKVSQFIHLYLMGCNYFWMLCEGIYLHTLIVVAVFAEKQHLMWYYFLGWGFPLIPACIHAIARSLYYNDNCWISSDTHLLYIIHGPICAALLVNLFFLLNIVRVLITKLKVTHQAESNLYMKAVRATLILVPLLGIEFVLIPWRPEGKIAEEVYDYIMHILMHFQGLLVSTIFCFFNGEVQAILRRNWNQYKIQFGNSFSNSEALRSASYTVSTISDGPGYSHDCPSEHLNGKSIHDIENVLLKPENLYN
CALCRL-RAMP2, sequence (O60895 43-175 partner): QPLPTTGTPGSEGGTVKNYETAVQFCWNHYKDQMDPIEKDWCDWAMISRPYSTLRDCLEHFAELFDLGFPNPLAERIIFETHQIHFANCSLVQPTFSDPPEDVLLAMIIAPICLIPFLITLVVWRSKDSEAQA
SCTR, sequence (P47872 23-440): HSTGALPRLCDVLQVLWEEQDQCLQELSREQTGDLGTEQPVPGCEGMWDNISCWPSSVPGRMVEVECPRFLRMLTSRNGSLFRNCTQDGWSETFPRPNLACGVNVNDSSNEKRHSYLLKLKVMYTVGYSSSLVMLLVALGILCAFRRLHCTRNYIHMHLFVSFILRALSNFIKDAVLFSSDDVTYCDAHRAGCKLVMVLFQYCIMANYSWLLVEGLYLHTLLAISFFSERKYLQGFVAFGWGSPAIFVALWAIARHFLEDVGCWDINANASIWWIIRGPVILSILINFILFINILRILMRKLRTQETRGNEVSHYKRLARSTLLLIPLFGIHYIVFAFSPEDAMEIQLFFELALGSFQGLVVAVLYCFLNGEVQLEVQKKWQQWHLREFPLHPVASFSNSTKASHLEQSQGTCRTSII
SSTR5, sequence (P35346 whole entry): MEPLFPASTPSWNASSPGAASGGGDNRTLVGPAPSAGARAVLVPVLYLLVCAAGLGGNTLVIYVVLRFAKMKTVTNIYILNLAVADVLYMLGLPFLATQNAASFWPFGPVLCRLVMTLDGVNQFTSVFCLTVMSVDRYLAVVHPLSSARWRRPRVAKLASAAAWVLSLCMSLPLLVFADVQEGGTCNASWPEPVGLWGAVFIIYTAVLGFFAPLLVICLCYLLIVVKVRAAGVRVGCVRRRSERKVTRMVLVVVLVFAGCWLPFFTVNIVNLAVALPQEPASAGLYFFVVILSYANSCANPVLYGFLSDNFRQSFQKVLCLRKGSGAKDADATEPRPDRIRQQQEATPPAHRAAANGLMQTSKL
CCR9, sequence (P51686 whole entry): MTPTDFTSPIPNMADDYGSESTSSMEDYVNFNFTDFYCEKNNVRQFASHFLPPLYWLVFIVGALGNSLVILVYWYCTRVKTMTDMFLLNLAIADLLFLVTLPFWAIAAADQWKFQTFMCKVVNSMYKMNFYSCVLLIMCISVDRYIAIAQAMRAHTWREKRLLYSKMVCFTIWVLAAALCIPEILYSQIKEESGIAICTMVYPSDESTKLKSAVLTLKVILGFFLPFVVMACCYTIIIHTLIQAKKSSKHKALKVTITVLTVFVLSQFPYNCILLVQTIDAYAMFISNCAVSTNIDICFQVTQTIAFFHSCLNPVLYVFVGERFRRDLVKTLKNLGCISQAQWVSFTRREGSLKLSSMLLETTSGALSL
P2RY2, sequence (P41231 whole entry): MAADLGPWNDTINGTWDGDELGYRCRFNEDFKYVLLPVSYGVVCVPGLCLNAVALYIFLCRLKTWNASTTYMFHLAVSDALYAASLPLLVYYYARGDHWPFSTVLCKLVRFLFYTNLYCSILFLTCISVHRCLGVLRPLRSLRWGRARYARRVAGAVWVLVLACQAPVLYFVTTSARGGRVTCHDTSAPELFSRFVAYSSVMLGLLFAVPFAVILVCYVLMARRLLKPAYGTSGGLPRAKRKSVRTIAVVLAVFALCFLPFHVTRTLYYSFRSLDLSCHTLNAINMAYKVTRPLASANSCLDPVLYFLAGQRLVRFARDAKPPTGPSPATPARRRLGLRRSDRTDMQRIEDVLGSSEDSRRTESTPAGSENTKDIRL
NTSR1, sequence (P30989 whole entry): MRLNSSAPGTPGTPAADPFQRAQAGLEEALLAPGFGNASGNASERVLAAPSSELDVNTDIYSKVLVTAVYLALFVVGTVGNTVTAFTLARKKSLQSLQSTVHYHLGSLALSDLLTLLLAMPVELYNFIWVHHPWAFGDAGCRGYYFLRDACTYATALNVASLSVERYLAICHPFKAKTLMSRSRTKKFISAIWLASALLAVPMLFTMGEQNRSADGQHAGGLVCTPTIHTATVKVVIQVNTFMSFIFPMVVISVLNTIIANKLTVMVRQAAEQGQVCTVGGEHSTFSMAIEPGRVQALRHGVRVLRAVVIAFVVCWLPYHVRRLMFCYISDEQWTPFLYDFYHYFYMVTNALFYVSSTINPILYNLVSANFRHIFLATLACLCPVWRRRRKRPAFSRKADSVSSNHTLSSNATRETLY
MCHR2, sequence (Q969V1 whole entry): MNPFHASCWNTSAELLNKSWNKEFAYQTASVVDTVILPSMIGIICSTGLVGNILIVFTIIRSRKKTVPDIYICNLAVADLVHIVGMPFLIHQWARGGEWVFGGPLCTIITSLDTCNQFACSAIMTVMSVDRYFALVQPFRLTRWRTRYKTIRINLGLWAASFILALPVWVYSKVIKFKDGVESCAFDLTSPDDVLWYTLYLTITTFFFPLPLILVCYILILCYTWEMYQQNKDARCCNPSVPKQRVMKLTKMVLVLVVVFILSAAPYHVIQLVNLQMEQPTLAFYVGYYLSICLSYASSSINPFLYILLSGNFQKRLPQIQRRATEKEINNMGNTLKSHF
OXER1, sequence (Q8TDS5 whole entry): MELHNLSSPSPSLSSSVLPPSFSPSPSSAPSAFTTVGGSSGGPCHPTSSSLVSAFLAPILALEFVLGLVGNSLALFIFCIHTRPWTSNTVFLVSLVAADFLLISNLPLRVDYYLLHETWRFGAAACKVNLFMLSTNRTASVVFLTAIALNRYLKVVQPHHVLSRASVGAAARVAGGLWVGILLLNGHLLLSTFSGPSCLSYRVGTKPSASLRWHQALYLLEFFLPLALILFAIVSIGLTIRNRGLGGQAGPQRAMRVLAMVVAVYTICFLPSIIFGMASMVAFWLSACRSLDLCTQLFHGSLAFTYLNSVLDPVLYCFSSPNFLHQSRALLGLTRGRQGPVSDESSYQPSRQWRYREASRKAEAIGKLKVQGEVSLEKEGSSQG

**Q.** Which results are given for `Cc1c(Cl)cccc1NC(=O)c1sc2nc3c(cc2c1N)C(=O)CCC3` [Compound 1]?
**A.** GI50 (CNS:SF-268): 238 nM; GI50 (CO:COLO 205): 51.8 nM; GI50 (CO:HCT-116): 66.8 nM; GI50 (CO:KM12): 67.3 nM; GI50 (LE:SR): 74.2 nM; GI50 (LC:NCI-H522): 22.9 nM; GI50 (OV:OVCAR-3): 48.9 nM; GI50 (OV:OVCAR-4): 604 nM; GI50 (RE:CAKI-1): 46.1 nM; GI50 (RE:SN12C): 142 nM; inhibition at 10 µM (ADRA2C): -14%; inhibition at 10 µM (BDKRB2): 1%; inhibition at 10 µM (CALCRL-RAMP2): -23%; inhibition at 10 µM (CALCR-RAMP2): 0%; inhibition at 10 µM (CCR1): -10%; inhibition at 10 µM (CCR3): -47%; inhibition at 10 µM (CCR6): -6%; inhibition at 10 µM (CCR7): 34%; inhibition at 10 µM (CCR9): 17%; inhibition at 10 µM (CHRM1): 0%; inhibition at 10 µM (CMKLR1): 14%; inhibition at 10 µM (CRTH2): 13%; inhibition at 10 µM (CXCR6): 5%; inhibition at 10 µM (DRD2L): -1%; inhibition at 10 µM (EDNRB): 0%; inhibition at 10 µM (GPR120): 4%; inhibition at 10 µM (HTR2A): -1%; inhibition at 10 µM (MC1R): -16%; inhibition at 10 µM (MCHR2): -7%; inhibition at 10 µM (NTSR1): 12%; inhibition at 10 µM (OPRD1): -26%; inhibition at 10 µM (OXER1): -1%; inhibition at 10 µM (P2RY1): 24%; inhibition at 10 µM (P2RY2): -14%; inhibition at 10 µM (PPYR1): -18%; inhibition at 10 µM (PTGER2): -5%; inhibition at 10 µM (PTGFR): -13%; inhibition at 10 µM (SCTR): 13%; inhibition at 10 µM (SSTR5): -3%; inhibition at 10 µM (TSHR(L)): -24%
